Experimental findings from paper PMC8518639 (Chemmedchem, 2021) are described below.

Each structure is given as a SMILES string.

A short description of data set [1]: Caco-2 cell permeability assay. The conditions noted are these: human; for Papp at 90 min, 10 μM: Caco-2, Papp. Type of data set: in vitro ADME. In general terms: Passage across Caco-2 layers is used to estimate intestinal permeability.
Another data set deals with Caco‐2 cells. Description: Caco-2 cell permeability assay. Type of data set: in vitro ADME. The conditions noted are these: Caco‐2, 10 μM.
Another data set has as its target PRDM9 (Homo sapiens, UniProt Q9NQV7). Description: HotSpot Methyltransferase Profiling assay, PRDM9. Type of data set: biochemical.
The target of a further data set is SETD2 (Homo sapiens, UniProt Q9BYW2). The experiment in a line: HotSpot Methyltransferase Profiling assay, SETD2. The format is biochemical.
In a further data set the target is MLL4 complex (Homo sapiens, UniProt Q9UMN6). Description: HotSpot Methyltransferase Profiling assay, MLL4 complex. The format is biochemical.
Sequence of MLL4 complex (Q9UMN6 2490-2715): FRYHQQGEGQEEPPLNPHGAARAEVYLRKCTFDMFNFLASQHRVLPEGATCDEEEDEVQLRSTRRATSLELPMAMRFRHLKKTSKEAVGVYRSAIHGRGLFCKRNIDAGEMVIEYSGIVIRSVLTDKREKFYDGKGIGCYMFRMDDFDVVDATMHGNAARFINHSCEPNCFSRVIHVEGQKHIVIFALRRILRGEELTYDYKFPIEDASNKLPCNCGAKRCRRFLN
Sequence of MLL4 complex (Q9C005 whole entry, further chain): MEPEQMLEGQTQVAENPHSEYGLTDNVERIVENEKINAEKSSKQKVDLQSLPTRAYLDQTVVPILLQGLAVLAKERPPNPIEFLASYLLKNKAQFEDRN
Sequence of MLL4 complex (Q15291 whole entry, further chain): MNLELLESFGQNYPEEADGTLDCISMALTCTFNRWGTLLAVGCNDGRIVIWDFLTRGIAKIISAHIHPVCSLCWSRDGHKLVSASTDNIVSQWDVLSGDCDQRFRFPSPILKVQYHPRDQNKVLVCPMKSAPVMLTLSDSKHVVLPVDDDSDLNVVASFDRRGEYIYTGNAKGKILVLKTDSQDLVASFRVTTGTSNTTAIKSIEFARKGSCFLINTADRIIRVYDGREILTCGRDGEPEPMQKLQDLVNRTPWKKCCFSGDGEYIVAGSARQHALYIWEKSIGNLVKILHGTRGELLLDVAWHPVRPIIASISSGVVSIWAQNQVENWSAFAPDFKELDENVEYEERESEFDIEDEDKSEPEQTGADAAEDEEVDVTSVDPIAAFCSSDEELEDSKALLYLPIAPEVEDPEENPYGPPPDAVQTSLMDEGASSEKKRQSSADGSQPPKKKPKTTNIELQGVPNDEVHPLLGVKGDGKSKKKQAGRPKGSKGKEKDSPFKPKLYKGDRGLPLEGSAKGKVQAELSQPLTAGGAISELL
Sequence of MLL4 complex (Q9UBL3 96-628, further chain): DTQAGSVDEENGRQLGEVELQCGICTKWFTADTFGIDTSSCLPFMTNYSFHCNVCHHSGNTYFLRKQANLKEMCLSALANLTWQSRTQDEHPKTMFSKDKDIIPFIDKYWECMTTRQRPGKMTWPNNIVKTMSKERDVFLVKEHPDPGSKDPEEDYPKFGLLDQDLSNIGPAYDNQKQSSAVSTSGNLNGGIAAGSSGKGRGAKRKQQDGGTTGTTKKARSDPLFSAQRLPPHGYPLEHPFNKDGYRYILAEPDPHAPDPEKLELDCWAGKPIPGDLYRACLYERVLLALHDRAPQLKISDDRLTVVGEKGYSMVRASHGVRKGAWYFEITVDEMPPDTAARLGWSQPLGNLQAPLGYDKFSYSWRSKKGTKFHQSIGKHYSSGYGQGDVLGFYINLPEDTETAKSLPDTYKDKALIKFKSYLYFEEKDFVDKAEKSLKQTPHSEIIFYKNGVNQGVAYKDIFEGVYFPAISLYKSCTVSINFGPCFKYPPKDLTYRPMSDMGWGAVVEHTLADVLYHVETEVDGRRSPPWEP

Sequence of SETD2 (Q9BYW2 whole entry): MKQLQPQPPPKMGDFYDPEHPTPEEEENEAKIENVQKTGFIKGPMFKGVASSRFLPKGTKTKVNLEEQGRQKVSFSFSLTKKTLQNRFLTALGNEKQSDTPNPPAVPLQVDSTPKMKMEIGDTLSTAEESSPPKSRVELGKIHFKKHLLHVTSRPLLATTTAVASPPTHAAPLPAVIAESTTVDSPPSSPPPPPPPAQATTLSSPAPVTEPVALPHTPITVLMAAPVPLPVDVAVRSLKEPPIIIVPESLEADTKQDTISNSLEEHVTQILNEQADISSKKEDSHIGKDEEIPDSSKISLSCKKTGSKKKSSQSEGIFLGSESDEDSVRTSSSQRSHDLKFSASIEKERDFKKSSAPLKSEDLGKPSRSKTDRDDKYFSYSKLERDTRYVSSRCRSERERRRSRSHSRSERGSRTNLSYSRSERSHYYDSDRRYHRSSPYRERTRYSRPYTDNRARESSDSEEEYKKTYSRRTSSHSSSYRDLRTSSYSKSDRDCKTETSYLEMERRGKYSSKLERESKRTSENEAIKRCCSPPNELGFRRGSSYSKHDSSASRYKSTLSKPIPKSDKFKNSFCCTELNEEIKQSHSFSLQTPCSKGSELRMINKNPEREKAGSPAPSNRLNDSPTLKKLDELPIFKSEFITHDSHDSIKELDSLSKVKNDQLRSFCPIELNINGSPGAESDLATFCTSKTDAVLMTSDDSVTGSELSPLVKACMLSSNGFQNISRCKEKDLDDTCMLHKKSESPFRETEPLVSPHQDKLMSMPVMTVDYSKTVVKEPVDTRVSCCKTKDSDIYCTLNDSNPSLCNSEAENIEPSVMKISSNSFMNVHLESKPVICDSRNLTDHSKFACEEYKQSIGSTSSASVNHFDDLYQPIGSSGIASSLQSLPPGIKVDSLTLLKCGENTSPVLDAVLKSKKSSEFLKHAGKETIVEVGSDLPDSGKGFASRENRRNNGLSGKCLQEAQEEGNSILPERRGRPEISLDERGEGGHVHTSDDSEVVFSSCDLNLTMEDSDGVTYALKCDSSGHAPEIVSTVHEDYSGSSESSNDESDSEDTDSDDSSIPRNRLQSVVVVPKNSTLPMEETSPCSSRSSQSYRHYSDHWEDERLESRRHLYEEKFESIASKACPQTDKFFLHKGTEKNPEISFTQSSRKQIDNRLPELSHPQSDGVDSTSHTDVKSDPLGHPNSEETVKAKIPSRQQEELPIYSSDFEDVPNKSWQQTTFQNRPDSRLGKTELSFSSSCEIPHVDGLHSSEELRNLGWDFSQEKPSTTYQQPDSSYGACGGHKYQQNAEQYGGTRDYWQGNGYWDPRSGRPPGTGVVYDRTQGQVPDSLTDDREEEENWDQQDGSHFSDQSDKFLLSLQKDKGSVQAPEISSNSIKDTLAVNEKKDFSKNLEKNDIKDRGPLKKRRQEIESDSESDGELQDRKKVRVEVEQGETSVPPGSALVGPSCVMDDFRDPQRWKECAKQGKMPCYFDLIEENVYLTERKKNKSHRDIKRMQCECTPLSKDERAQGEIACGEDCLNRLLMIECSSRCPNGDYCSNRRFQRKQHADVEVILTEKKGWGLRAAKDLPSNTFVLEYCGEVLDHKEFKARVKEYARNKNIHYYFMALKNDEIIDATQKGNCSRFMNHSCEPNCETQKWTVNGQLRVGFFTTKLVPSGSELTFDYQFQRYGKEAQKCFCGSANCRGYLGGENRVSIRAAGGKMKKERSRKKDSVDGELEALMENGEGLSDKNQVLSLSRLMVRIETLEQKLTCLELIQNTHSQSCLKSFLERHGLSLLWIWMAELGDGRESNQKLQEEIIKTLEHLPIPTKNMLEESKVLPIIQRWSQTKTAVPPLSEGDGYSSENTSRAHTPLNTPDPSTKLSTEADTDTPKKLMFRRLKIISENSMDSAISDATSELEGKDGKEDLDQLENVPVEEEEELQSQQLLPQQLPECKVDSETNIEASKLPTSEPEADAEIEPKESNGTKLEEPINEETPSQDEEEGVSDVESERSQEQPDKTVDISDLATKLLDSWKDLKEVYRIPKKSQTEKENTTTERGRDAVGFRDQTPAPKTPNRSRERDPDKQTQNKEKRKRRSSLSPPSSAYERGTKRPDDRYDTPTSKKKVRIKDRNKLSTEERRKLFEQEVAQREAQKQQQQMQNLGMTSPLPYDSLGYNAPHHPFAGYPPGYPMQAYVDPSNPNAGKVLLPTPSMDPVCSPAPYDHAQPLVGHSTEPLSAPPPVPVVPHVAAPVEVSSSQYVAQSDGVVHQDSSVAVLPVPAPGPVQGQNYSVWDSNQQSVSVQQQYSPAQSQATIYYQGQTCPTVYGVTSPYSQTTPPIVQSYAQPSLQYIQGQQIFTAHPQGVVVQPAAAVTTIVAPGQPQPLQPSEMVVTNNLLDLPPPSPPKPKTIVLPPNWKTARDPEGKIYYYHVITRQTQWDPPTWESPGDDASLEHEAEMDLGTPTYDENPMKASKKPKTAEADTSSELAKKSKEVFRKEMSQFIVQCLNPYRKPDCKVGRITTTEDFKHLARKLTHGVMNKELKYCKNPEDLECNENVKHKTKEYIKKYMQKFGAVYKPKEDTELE
Sequence of PRDM9 (Q9NQV7 whole entry): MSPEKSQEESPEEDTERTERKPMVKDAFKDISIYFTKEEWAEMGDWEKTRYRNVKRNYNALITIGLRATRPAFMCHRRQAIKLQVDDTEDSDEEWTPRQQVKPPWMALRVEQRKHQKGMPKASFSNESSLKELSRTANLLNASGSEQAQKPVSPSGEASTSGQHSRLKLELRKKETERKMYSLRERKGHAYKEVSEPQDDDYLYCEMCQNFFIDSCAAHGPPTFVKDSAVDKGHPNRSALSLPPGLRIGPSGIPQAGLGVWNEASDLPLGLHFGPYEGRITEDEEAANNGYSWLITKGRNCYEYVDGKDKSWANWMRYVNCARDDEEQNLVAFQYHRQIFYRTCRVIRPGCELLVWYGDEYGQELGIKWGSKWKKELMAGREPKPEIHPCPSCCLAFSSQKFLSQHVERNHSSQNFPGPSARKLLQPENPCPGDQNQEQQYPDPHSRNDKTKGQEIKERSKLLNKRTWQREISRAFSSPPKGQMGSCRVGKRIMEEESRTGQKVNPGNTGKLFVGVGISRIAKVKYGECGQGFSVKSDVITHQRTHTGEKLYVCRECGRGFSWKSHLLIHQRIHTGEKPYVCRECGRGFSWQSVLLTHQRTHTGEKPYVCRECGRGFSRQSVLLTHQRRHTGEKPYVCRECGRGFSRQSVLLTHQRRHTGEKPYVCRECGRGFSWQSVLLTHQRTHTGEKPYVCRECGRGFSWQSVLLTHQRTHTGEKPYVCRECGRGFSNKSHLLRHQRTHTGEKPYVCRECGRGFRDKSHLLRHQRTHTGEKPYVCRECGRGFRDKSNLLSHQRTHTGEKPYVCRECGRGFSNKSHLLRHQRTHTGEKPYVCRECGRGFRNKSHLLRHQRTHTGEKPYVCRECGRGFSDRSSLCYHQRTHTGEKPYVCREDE

As to `COCCc1ccc(OCC(O)CNC(C)C)cc1` (stereo not shown) [Metoprolol], the Papp at 90 min, 10 μM in data set [1] (Replicate 1, Direction A‐B) was found to be 33.7 ×10⁻⁶ cm/s; in data set [1] (Replicate 1, Direction B‐A), 34.7 ×10⁻⁶ cm/s; in data set [1] (Replicate 2, Direction A‐B) it was 31.4 ×10⁻⁶ cm/s; in data set [1] (Replicate 2, Direction B‐A), 33.3 ×10⁻⁶ cm/s. Further, the “Papp(B−A)/Papp(A−B) (efflux ratio)” value in the data set on Caco‐2 cells is recorded as 1.1.
`CN1C(=O)[C@@]23C[C@]4([C@]56C[C@@]78SS[C@@](CO)(C(=O)N7[C@H]5Nc5ccccc56)N(C)C8=O)c5ccccc5N[C@@H]4N2C(=O)[C@]1(CO)SS3` [chaetocin] yielded an IC50 on PRDM9 of 3.98 µM.
On to `CC[C@H]1OC(=O)[C@H](C)[C@@H](O[C@H]2C[C@@](C)(OC)[C@@H](O)[C@H](C)O2)[C@H](C)[C@@H](O[C@@H]2O[C@H](C)C[C@H](N(C)C)[C@H]2O)[C@](C)(O)C[C@@H](C)C(=O)[C@H](C)[C@@H](O)[C@]1(C)O` [Erythromycin], for which the efflux ratio at 90 min, 10 μM in data set [1] (Caco-2) was found to be 62.9. Further, the apparent permeability coefficient (Papp) at 90 min, 10 μM stood at 0.3 ×10⁻⁶ cm/s in data set [1] (Replicate 1, Direction A‐B); 18.1 ×10⁻⁶ cm/s in data set [1] (Replicate 1, Direction B‐A); 0.2 ×10⁻⁶ cm/s in data set [1] (Replicate 2, Direction A‐B); 17.5 ×10⁻⁶ cm/s in data set [1] (Replicate 2, Direction B‐A).
Regarding `Nc1ncnc2c1ncn2[C@@H]1O[C@H](CSCC[C@H](N)C(=O)O)[C@@H](O)[C@H]1O` [SAH, S‐(5′‐adenosyl)‐ʟ‐homocysteine], the IC50 at SETD2 was 7.39 µM; against MLL4 complex, 2.11 µM.

For orientation: Papp means a coefficient for how fast a substance crosses the barrier. High values mean ready permeation, low ones poor permeation. Broadly, the IC50 is the concentration that gives 50% inhibition. The low end stands for inhibition by little substance, the high end for a need for much substance. The efflux ratio is a quotient of directional permeabilities that is used to spot active efflux.
